Where “and” joins values, the source holds several entries; their conditions need not be identical. Equal values may be shown once.
Experiment: Accelerated stability test (30° C., 65% RH, 18 weeks)
Assay type: physicochemical
Description: Accelerated stability test has been carried what to assess the quality of a test item prepared as the one in Example 7 during time, under the influence of temperature and humidity.
The test was conducted at 30° C., at 65% of relative humidity (RH), for 18 weeks.
[…], assessing: the appearance of each container (the one containing chloramine T and the one containing the excipients), appearance of the products therein, the weight loss of the products and the content of chloramine T.
Appearance of the test item and of the packaging was assessed under the lab light. Weight loss was assessed weighing each sample at T0 (WT0) and at the final time point (WTx) and compared with their initial value (%) according to the following formula:
Weight loss from initial %=[(WT0−WTx)*100]/(WT0)
The content of chloramine T was assessed as described in Example 7.

[1] = T8 w, single determination, 30° C./65% RH
[2] = T18 w, single determination, 30° C./65% RH

Cc1ccc(S(=O)(=O)[N-]Cl)cc1.[Na+] [Chloramine T, chloramine T]
Available Chlorine, average (T0, average): 24.53 % w/w
CHLORAMINE T anhydrous, average (T0, average): 97.46 % w/w
CHLORAMINE T tri-hydrated, average (T0, average): 78.76 % w/w
CHLORAMINE T anhydrous (T0, single determination): 97.61 % w/w and 97.31 % w/w
CHLORAMINE T tri-hydrated (T0, single determination): 78.88 % w/w and 78.64 % w/w
Available Chlorine (T0, single determination, chloramine T container of kit): 24.57 % w/w and 24.49 % w/w
Available Chlorine, average (T8 w, average, 30° C./65% RH): 0.18 % w/w
CHLORAMINE T anhydrous, average (T8 w, average, 30° C./65% RH): 0.73 % w/w
CHLORAMINE T tri-hydrated, average (T8 w, average, 30° C./65% RH): 0.59 % w/w
Available Chlorine [1]: 0.18 % w/w
CHLORAMINE T anhydrous [1]: 0.73 % w/w
CHLORAMINE T tri-hydrated [1]: 0.59 % w/w
Tx/T0 %, Available Chlorine (T18 w versus T0, 30° C./65% RH): 100.4%
Tx/T0 %, CHLORAMINE T anhydrous (T18 w versus T0, 30° C./65% RH): 100.4%
Tx/T0 %, CHLORAMINE T tri-hydrated (T18 w versus T0, 30° C./65% RH): 100.4%
Available Chlorine, average (T18 w, average, 30° C./65% RH): 24.62 % w/w
CHLORAMINE T anhydrous, average (T18 w, average, 30° C./65% RH): 78.06 % w/w
CHLORAMINE T tri-hydrated, average (T18 w, average, 30° C./65% RH): 97.83 % w/w
Available Chlorine [2]: 24.59 % w/w and 24.86 % w/w
CHLORAMINE T anhydrous [2]: 78.94 % w/w and 79.18 % w/w
CHLORAMINE T tri-hydrated [2]: 97.68 % w/w and 97.99 % w/w
content of active chloramine T compared to T0 (after 18 weeks at 30° C./65% RH): 100.4%
variations in the appearance and weight (after 18 weeks at 30° C./65% RH, envelopes): no significant variations
appearance of the product versus T0 (after 18 weeks at 30° C./65% RH, sealed container): did not present variations from T0

From patent publication US20240156754A1, “POWDER COMPOSITION FOR DISINFECTION OF THE TEATS OF DAIRY ANIMALS” (KLARECO SRL, priority 2022, published 2024)
